Measured values reported in US7785587B2, “Therapeutic methods for muscular or neuromuscular disorders” (Wyeth, priority 2003, dated 2010).

Assays:
Format in all cases: in vivo, mouse
IL6 = test: Serum IL6 in mice treated with prednisone; conditions: separate cohort of mice treated with prednisone
Protocol: (§1) At the end of the study, mice were sacrificed and muscle mass was assessed by dissecting and weighing the gastrocnemius and quadriceps. To confirm biological activity of prednisone, sera from a separate cohort of mice were collected and analyzed for IL6 and IL1β (Ani Lyctics, Inc., Gaithersburg, Md.).

C57BL/10ScSn-mdx/j mice [1] = test: Gastrocnemius and quadriceps weight in mdx mice treated 4 weeks with prednisone with or without JA-16 (Example 2); conditions: end of 4-week study
Protocol: (§2) Male C57BL/10ScSn-mdx/j and C57BL/10 (Jackson Laboratory, Bar Harbor, Me.). Mouse monoclonal anti-GDF-8 antibody JA-16, prednisone (P-9901, Sigma), or vehicle (peanut oil) was injected starting at age 5-7 weeks for 4 weeks. Mice were intraperitoneally (IP) injected with JA-16 at a dose of 60 mg/kg per week (double dosing at first week), or subcutaneously (SC) injected with prednisone at 2 mg/kg, 3 times a week.
as §1

C57BL/10ScSn-mdx/j mice [2] = test: Grip strength of mdx mice treated 4 weeks with prednisone with or without JA-16 (Example 2); conditions: JA-16 60 mg/kg per week IP, prednisone 2 mg/kg SC 3 times a week
Protocol: as §2, with “week. The body weight and grip strength were monitored before, during and after treatment. Results are shown in Table 3 and Table 4, respectively.” for “week.”

IL1β = test: Serum IL1β in mice treated with prednisone; conditions: separate cohort of mice treated with prednisone
Protocol: as §1

C57BL/10ScSn-mdx/j mice [3] = test: Total body weight of mdx mice treated 4 weeks with prednisone with or without JA-16 (Example 2); conditions: JA-16 60 mg/kg per week IP, prednisone 2 mg/kg SC 3 times a week
Protocol: as §2, with “week. The body weight and grip strength were monitored before, during and after treatment. Results are shown in Table 3 and Table 4, respectively.” for “week.”

## C[C@]12C=CC(=O)C=C1CC[C@@H]1[C@@H]2C(=O)C[C@@]2(C)[C@H]1CC[C@]2(O)C(=O)CO [Prednisone, prednisone]
IL6
  IL6 in sera: reduced
C57BL/10ScSn-mdx/j mice [1]
  Muscle weight (average ± SEM), Gastroc: 0.287 ± 0.023 g
  Muscle weight (average ± SEM), Quad: 0.417 ± 0.029 g
C57BL/10ScSn-mdx/j mice [2]; week 0 of trial
  Grip strength (average ± SEM): 0.144 ± 0.010 lb
C57BL/10ScSn-mdx/j mice [2]; week 3 of trial
  Grip strength (average ± SEM): 0.177 ± 0.006 lb
C57BL/10ScSn-mdx/j mice [2]; week 4 of trial
  Grip strength (average ± SEM): 0.213 ± 0.011 lb
IL1β
  IL1β in sera: reduced
C57BL/10ScSn-mdx/j mice [3]; week 0 of trial
  Total body weight (average ± SEM): 17.6 ± 1.8 g
C57BL/10ScSn-mdx/j mice [3]; week 1 of trial
  Total body weight (average ± SEM): 20.9 ± 1.8 g
C57BL/10ScSn-mdx/j mice [3]; week 2 of trial
  Total body weight (average ± SEM): 24.2 ± 1.6 g
C57BL/10ScSn-mdx/j mice [3]; week 3 of trial
  Total body weight (average ± SEM): 24.7 ± 1.5 g
C57BL/10ScSn-mdx/j mice [3]; week 4 of trial
  Total body weight (average ± SEM): 25.9 ± 1.6 g
